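In this assay, cells in 96-well plates receive the compound at five concentrations for 48 hours. Endpoints are linearly interpolated between the surrounding concentrations. GI50 = concentration required for 50% inhibition of growth.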 Active and inactive are the calls of the source. Cut-off read from the data, not from the text of the source: active = GI50 up to about 1.1 µM and inactive = higher.
Tests used:
Assay in all cases: inhibition of tumour cell growth, NCI panel, 48 h
[1] = tested on: A549
[2] = tested on: BT-549
[3] = tested on: HCT-116
[4] = tested on: HT-29
[5] = tested on: K562
[6] = tested on: M14
[7] = tested on: MDA-N
[8] = tested on: MOLT-4
[9] = tested on: NCI-H460
[10] = tested on: NCI/ADR-RES
[11] = tested on: OVCAR-4
[12] = tested on: OVCAR-8
[13] = tested on: SF-268
[14] = tested on: SK-MEL-5
[15] = tested on: SK-OV-3
[16] = tested on: SNB-75
[17] = tested on: UACC-257
[18] = tested on: UO-31
[19] = tested on: SK-MEL-2

Compound	GI50 [1]	GI50 [2]	GI50 [3]	GI50 [4]	GI50 [5]	GI50 [6]	GI50 [7]	GI50 [8]	GI50 [9]	GI50 [10]	GI50 [11]	GI50 [12]	GI50 [13]	GI50 [14]	GI50 [15]	GI50 [16]	GI50 [17]	GI50 [18]	GI50 [19]
CC1(C)C2CCC1C(=O)[C@@]1(C=CC(=O)CC1)C2 (stereo partly drawn)	> 100 µM (inactive)	> 100 µM (inactive)	> 100 µM (inactive)	> 100 µM (inactive)	> 100 µM (inactive)	> 100 µM (inactive)	> 100 µM (inactive)	> 100 µM (inactive)	> 100 µM (inactive)	> 100 µM (inactive)	> 100 µM (inactive)	> 100 µM (inactive)	> 100 µM (inactive)	> 100 µM (inactive)	> 100 µM (inactive)	61.1 µM (inactive)	> 100 µM (inactive)	> 100 µM (inactive)	
Cc1nn(C(=O)c2ccc(Cl)cc2)c2c1C(c1ccccc1O)SC(=N)N2 (stereo not drawn)	> 10 µM (inactive)	> 10 µM (inactive)	> 10 µM (inactive)	> 10 µM (inactive)	> 10 µM (inactive)	> 10 µM (inactive)	> 10 µM (inactive)	> 10 µM (inactive)	> 10 µM (inactive)	> 10 µM (inactive)	> 10 µM (inactive)	> 10 µM (inactive)	> 10 µM (inactive)	> 10 µM (inactive)	> 10 µM (inactive)	> 10 µM (inactive)	> 10 µM (inactive)		> 10 µM (inactive)
Cc1nn(C(=O)c2ccncc2)c2c1C(c1cccc([N+](=O)[O-])c1)SC(=N)N2 (stereo not drawn)	> 10 µM (inactive)	> 10 µM (inactive)	> 10 µM (inactive)	> 10 µM (inactive)	> 10 µM (inactive)	> 10 µM (inactive)	> 10 µM (inactive)	> 10 µM (inactive)	> 10 µM (inactive)	> 10 µM (inactive)	> 10 µM (inactive)	> 10 µM (inactive)	> 10 µM (inactive)	> 10 µM (inactive)	> 10 µM (inactive)	> 10 µM (inactive)	> 10 µM (inactive)		> 10 µM (inactive)
O=c1oc2ccccc2c(Nc2ccc3c(c2)Sc2ccccc2O3)c1[N+](=O)[O-]	21.1 µM (inactive)	27.8 µM (inactive)	25.5 µM (inactive)	23.9 µM (inactive)	20 µM (inactive)	27.4 µM (inactive)	30.9 µM (inactive)		17.3 µM (inactive)	26.9 µM (inactive)	25 µM (inactive)	30.8 µM (inactive)	33.6 µM (inactive)	15.8 µM (inactive)	35.2 µM (inactive)	23.2 µM (inactive)	18.5 µM (inactive)	25.6 µM (inactive)	20.5 µM (inactive)
O=[N+]([O-])c1ccc(/C=C\c2ccc3c(c2)OCO3)c([N+](=O)[O-])c1	20.1 µM (inactive)	16.4 µM (inactive)	5.53 µM (inactive)	19.9 µM (inactive)	21.3 µM (inactive)	15.3 µM (inactive)	5.52 µM (inactive)	17.5 µM (inactive)	19.5 µM (inactive)	29.2 µM (inactive)		19 µM (inactive)	23 µM (inactive)	19 µM (inactive)	18.7 µM (inactive)	17.7 µM (inactive)	17.3 µM (inactive)	19.9 µM (inactive)	18.3 µM (inactive)
COc1ccc2[nH]c3c(c2c1)CC(=O)N1CCC[C@H](C1)CC31OCCCO1	> 100 µM (inactive)	> 100 µM (inactive)	> 100 µM (inactive)	> 100 µM (inactive)		> 100 µM (inactive)	> 100 µM (inactive)		> 100 µM (inactive)	> 100 µM (inactive)	> 100 µM (inactive)	> 100 µM (inactive)	> 100 µM (inactive)	> 100 µM (inactive)	> 100 µM (inactive)	86.9 µM (inactive)	> 100 µM (inactive)	> 100 µM (inactive)	> 100 µM (inactive)
Oc1ccccc1C1=NOC(c2ccc(C(F)(F)F)cc2)C1 (stereo not drawn)	> 50 µM (inactive)	> 50 µM (inactive)	> 50 µM (inactive)	> 50 µM (inactive)	> 50 µM (inactive)	> 50 µM (inactive)	> 50 µM (inactive)	> 50 µM (inactive)	> 50 µM (inactive)	> 50 µM (inactive)	> 50 µM (inactive)	> 50 µM (inactive)	> 50 µM (inactive)	> 50 µM (inactive)	> 50 µM (inactive)	> 50 µM (inactive)	> 50 µM (inactive)		> 46.1 µM (inactive)
O=Cc1coc2ccccc2c1=O	25.1 µM (inactive)	15.6 µM (inactive)	16.5 µM (inactive)	20.7 µM (inactive)	19.3 µM (inactive)	17.9 µM (inactive)	20.5 µM (inactive)	24.9 µM (inactive)	20.9 µM (inactive)	16 µM (inactive)	13.8 µM (inactive)	15 µM (inactive)	20.8 µM (inactive)	17.8 µM (inactive)	20 µM (inactive)	< 0.01 µM (active)	18.7 µM (inactive)	11.9 µM (inactive)	
